13 compounds from ChEMBL document CHEMBL1201862, “PubChem BioAssay data set” (2004) can be followed below.

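Values below derive from 48-hour exposures of cells grown in 96-well plates, with endpoints linearly interpolated between the two concentrations bracketing the appropriate inhibition level. At the GI50, growth is halved.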 Calls of active or inactive are those of the source. Cut-off read from the data, not from the text of the source: active = GI50 up to about 1.1 µM and inactive = higher.

Some test systems named below: ACHN; A549; A498; NCI-H226; K562; OVCAR-8; CAKI-1; SN12C; HCC 2998; EKVX; M14; NCI-H522; CCRF-CEM; Malme-3M; SF-295; SNB-75; DU-145; NCI/ADR-RES; MDA-MB-231; Hs-578T.
Common to all, as to experiment: NCI anticancer screen, dose series, 48 h

For `CC1(O)CCC2(C#N)CCC1C2O` (stereo not drawn), the GI50 with ACHN, in the experiment on A549, with A498, in the experiment on NCI-H226, in the experiment on K562 and with OVCAR-8 was > 100 µM (inactive) in each case. In addition, the GI50 with CAKI-1 is > 100 µM (inactive); in the experiment with SN12C it was > 100 µM (inactive); with HCC 2998, > 100 µM (inactive); in the experiment on EKVX it was > 100 µM (inactive); in the experiment with M14 it was > 100 µM (inactive); with NCI-H522 it was 50.6 µM (inactive). Besides, the GI50 in the experiment with CCRF-CEM was 49 µM (inactive); in the experiment with Malme-3M, > 100 µM (inactive); with SF-295 it was > 100 µM (inactive); in the experiment with SNB-75 it was > 100 µM (inactive).
Regarding `CCCCCNC(=O)c1c(O)[nH]c(=S)[nH]c1=O`, the GI50 with ACHN was > 100 µM (inactive); in the experiment on A549 it was 66.5 µM (inactive); in the experiment with A498, 96.8 µM (inactive); in the experiment on NCI-H226 it was > 100 µM (inactive); in the experiment on K562 it was > 100 µM (inactive); in the experiment on OVCAR-8 it was 94.4 µM (inactive). Besides, the GI50 in the experiment with CAKI-1, with SN12C, in the experiment on M14, in the experiment on NCI-H522, in the experiment on CCRF-CEM and in the experiment on Malme-3M was > 100 µM (inactive) each time. In addition, the GI50 in the experiment on SF-295 was 78.2 µM (inactive); in the experiment on SNB-75 it was > 100 µM (inactive).
As for `CC(=O)NC(CCCNC(=O)OCc1ccccc1)C(=O)O` (stereo not drawn), the GI50 with ACHN, in the experiment with A549, in the experiment with A498, in the experiment on NCI-H226, in the experiment on K562 and in the experiment on OVCAR-8 was > 100 µM (inactive) in each case. The GI50 with CAKI-1, with SN12C, in the experiment with HCC 2998, with EKVX, in the experiment on M14 and with NCI-H522 was > 100 µM (inactive) in each case. Also, the GI50 was > 100 µM (inactive) in the experiment on CCRF-CEM, > 100 µM (inactive) in the experiment on Malme-3M, > 100 µM (inactive) with SF-295 and 68.1 µM (inactive) in the experiment with SNB-75.
On to `CCOC(=O)CCC(NC(=O)c1ccc(Nc2nc3cc(C(F)(F)F)ccc3nc2C(=O)OCC)cc1)C(=O)OCC` (stereo not drawn), for which the GI50 in the experiment on ACHN is 13.8 µM (inactive); in the experiment on A549 it was 8.63 µM (inactive); with DU-145, 78.9 µM (inactive); in the experiment with NCI/ADR-RES, 12.2 µM (inactive); with K562, 95.3 µM (inactive); with OVCAR-8, 5.45 µM (inactive). In addition, the GI50 with SN12C is 10.7 µM (inactive); in the experiment with HCC 2998 it was 30.8 µM (inactive); in the experiment with EKVX, 15.9 µM (inactive); in the experiment with M14, 4.51 µM (inactive); in the experiment with NCI-H522, 11.2 µM (inactive); with CCRF-CEM, > 100 µM (inactive). Moreover, the figures for the GI50 in the experiment with SF-295 and in the experiment on MDA-MB-231 were 5.74 µM (inactive) and 12.5 µM (inactive), respectively.
As for `O=C(CSc1nnc(-c2ccc(/N=C\c3ccc(Cl)cc3)cc2)o1)Nc1ccccc1`, the GI50 in the experiment on ACHN was > 100 µM (inactive); in the experiment on A549 it was > 100 µM (inactive); in the experiment with NCI-H226, > 100 µM (inactive); with K562, 30.1 µM (inactive); in the experiment on OVCAR-8 it was > 100 µM (inactive); in the experiment on SN12C it was > 100 µM (inactive). Besides, the GI50 in the experiment with EKVX was > 100 µM (inactive); in the experiment on M14, 76 µM (inactive); in the experiment with NCI-H522 it was 16.9 µM (inactive); with CCRF-CEM, 32.9 µM (inactive); with Malme-3M, > 100 µM (inactive); in the experiment with SF-295, 94.4 µM (inactive). Further, in the experiment with SNB-75, the GI50 was 94.8 µM (inactive).
Consider `N#C/C(=C\c1ccc(C(O)P(=O)(O)O)cc1)C(N)=O` (stereo not drawn), for which the GI50 in the experiment with ACHN was 14.5 µM (inactive); in the experiment with A549, > 100 µM (inactive); with A498 it was > 100 µM (inactive); in the experiment on NCI-H226, > 100 µM (inactive); in the experiment on K562, > 100 µM (inactive); with OVCAR-8, > 100 µM (inactive). Also, the GI50 with SN12C was > 100 µM (inactive); with HCC 2998, 3.66 µM (inactive); in the experiment on EKVX, > 100 µM (inactive); in the experiment with M14 it was > 100 µM (inactive); with NCI-H522, > 100 µM (inactive); in the experiment with CCRF-CEM it was 9.93 µM (inactive). For the same compound, the GI50 in the experiment on Malme-3M and with SF-295 was > 100 µM (inactive) in each case.
Take `Cc1c(N2CCN(C)CC2)nc2ccc(Cl)cc2c1-c1ccccc1`: the GI50 in the experiment with ACHN was 22 µM (inactive); in the experiment with A549 it was 18.4 µM (inactive); in the experiment on A498, 12.2 µM (inactive); with K562 it was 14.5 µM (inactive); with OVCAR-8 it was 16.6 µM (inactive); in the experiment on CAKI-1, 17.3 µM (inactive). Moreover, the GI50 is 14.7 µM (inactive) with SN12C; > 10 µM (inactive) with HCC 2998; 17.7 µM (inactive) in the experiment with EKVX; 18.5 µM (inactive) in the experiment on M14; 19.9 µM (inactive) in the experiment on NCI-H522; 17.5 µM (inactive) with CCRF-CEM. Besides, the GI50 was 16.9 µM (inactive) with Malme-3M, 17.4 µM (inactive) in the experiment with SF-295 and 16.7 µM (inactive) with SNB-75.
Take `COc1ccc(-c2c(-c3ccccc3)c(C)nc3nc(SC)nc(SC)c23)cc1OC`: the GI50 is 19.9 µM (inactive) with ACHN; 1.4 µM (inactive) in the experiment with A549; 15.5 µM (inactive) in the experiment with DU-145; 15.7 µM (inactive) in the experiment on A498; 17.3 µM (inactive) with NCI-H226; 4.54 µM (inactive) in the experiment with K562. Moreover, the GI50 in the experiment on CAKI-1 was 0.764 µM (active); with SN12C, 7.4 µM (inactive); with HCC 2998, 25 µM (inactive); in the experiment on EKVX, 15.6 µM (inactive); with M14 it was 22.8 µM (inactive); in the experiment on NCI-H522 it was 4.61 µM (inactive). For the same compound, the GI50 in the experiment on CCRF-CEM was 4.26 µM (inactive); in the experiment with Malme-3M, 10.1 µM (inactive); in the experiment with SF-295, 7.55 µM (inactive); in the experiment with Hs-578T it was 5.05 µM (inactive); in the experiment with MDA-MB-231, 20.9 µM (inactive); with SNB-75, 16.1 µM (inactive).
With `Cc1c(/C=N/NC(=O)c2ccccc2O)c(=O)n(-c2ccccc2)n1C`, the GI50 in the experiment with ACHN, with A549, with NCI-H226, in the experiment with K562, in the experiment with OVCAR-8 and in the experiment with SN12C was > 100 µM (inactive) throughout. The GI50 with HCC 2998 was > 100 µM (inactive); in the experiment with EKVX, 49.2 µM (inactive); with M14, > 100 µM (inactive); in the experiment with NCI-H522, > 100 µM (inactive); with CCRF-CEM, 50.2 µM (inactive); in the experiment on Malme-3M, > 100 µM (inactive). For the same compound, the GI50 in the experiment on SF-295 and with SNB-75 was > 100 µM (inactive) in each case.
Consider `CCOP(=O)(OCC)C(Cc1ccc(OC)c(OC)c1)N=C(c1ccccc1)c1ccccc1` (stereo not drawn), for which the GI50 in the experiment with ACHN was 41.6 µM (inactive); in the experiment with A549, 26.5 µM (inactive); with DU-145, 37.2 µM (inactive); with A498, 56.8 µM (inactive); in the experiment on NCI-H226, 88.1 µM (inactive); in the experiment with NCI/ADR-RES, 44.7 µM (inactive). Further, the GI50 was < 0.01 µM (active) in the experiment on K562; 42.9 µM (inactive) in the experiment with OVCAR-8; 67 µM (inactive) with CAKI-1; 42 µM (inactive) with SN12C; 24.6 µM (inactive) with HCC 2998; 51.8 µM (inactive) in the experiment with M14. Also, the GI50 in the experiment with NCI-H522 is 22.8 µM (inactive); with CCRF-CEM it was 24 µM (inactive); in the experiment with SF-295, 26.2 µM (inactive); with MDA-MB-231 it was 42.3 µM (inactive); in the experiment with SNB-75 it was 27.5 µM (inactive).
Regarding `O=c1cc(O)ccn1C1C=C(CO)C(O)C1O` (stereo not drawn), the GI50 with A549 was > 625 µM (inactive); with NCI-H226, > 625 µM (inactive); in the experiment with NCI/ADR-RES it was > 625 µM (inactive); with OVCAR-8 it was > 625 µM (inactive); with CAKI-1, > 625 µM (inactive); with SN12C it was 586 µM (inactive). Also, the GI50 in the experiment on HCC 2998, with CCRF-CEM, in the experiment with Malme-3M, in the experiment on SF-295 and with SNB-75 was > 625 µM (inactive) throughout.
Consider `C[C@H]1COC2(c3ccccc3)CCC(=O)N12` (stereo partly drawn), for which the GI50 in the experiment with ACHN, with A549, with A498, in the experiment with K562, with OVCAR-8 and in the experiment on CAKI-1 was > 100 µM (inactive) each time. Further, the GI50 in the experiment on SN12C, in the experiment on EKVX, with CCRF-CEM, in the experiment with Malme-3M, in the experiment with SF-295 and with SNB-75 was > 100 µM (inactive) throughout.
In the case of `COc1cc(-c2ccc(/N=N/c3c(S(=O)(=O)O)cc4cc(S(=O)(=O)O)cc(N)c4c3O)c(OC)c2)ccc1/N=N/c1c(S(=O)(=O)O)cc2cc(S(=O)(=O)O)cc(N)c2c1O`, the GI50 in the experiment with A549 was > 77.4 µM (inactive); in the experiment on A498 it was > 100 µM (inactive); with NCI-H226 it was > 62.1 µM (inactive); with NCI/ADR-RES it was > 100 µM (inactive); in the experiment on K562 it was > 78.7 µM (inactive); with OVCAR-8, > 100 µM (inactive). Also, the GI50 with SN12C is > 100 µM (inactive); in the experiment with HCC 2998, > 100 µM (inactive); in the experiment on EKVX, 88.5 µM (inactive); with NCI-H522, > 100 µM (inactive); in the experiment with CCRF-CEM, > 88.3 µM (inactive); in the experiment with Malme-3M, > 100 µM (inactive). Besides, the GI50 is > 100 µM (inactive) in the experiment with SF-295 and 37.4 µM (inactive) in the experiment with SNB-75.
